{"source": "patent US10716807B2", "about": "“Method of treating relapsing-remitting multiple sclerosis using arsenic trioxide” (Medsenic, priority 2017, dated 2020)", "key": {"[1]": {"tested_on": "MOG35-55-induced EAE", "experiment": "MOG35-55-induced prophylactic/therapeutic EAE model", "assay_type": "in vivo, C57BL/6 mice", "settings": "for EAE disease severity compared to the vehicle group / EAE onset compared to the vehicle group: started 7 days before EAE induction", "method": "The study objective was to evaluate the effects of arsenic trioxide (1 mg/ml), administered i.v., QD, starting 7 days before EAE induction, on EAE development in the MOG35-55-induced prophylactic/therapeutic EAE model, known as the more robust and direct animal model to trigger and observe the autoimmune cascade involving the central nervous system and ensuing demyelination.\nEAE was induced by MOG35-55/CFA immunization and pertussis toxin injection in C57BL/6 mice.\nThere were 2 experimental groups with 12 mice per group. Mice were treated prophylactically.\nThe study used a total of 24 female C57BL/6 mice (Taconic Farms, 10 weeks old).\nEAE was induced in all mice as follows:\nDay 0, Hour 0—Immunization with MOG35-55/CFA\nDay 0, Hour 2—Injection of pertussis toxin\nDay 1, Hour 0—2nd injection of pertussis toxin (24 hours after initial immunization)\nMice were injected subcutaneously at two sites in the back with the emulsion component (containing MOG35-55) of Hooke Kit™ […] Emulsion PTX, catalog number EK-2110 (Hooke Laboratories, Lawrence Mass.). One site of injection was in the area of upper back, approximately 1 cm caudal of the neck line. The second site was in the area of lower back, approximately 2 cm cranial of the base of the tail. The injection volume was 0.1 mL at each site.\nWithin 2 hours of the injection of emulsion, and then again 24 hours after the injection of emulsion, the pertussis toxin component of the kit was administered intraperitoneally. The volume of each injection was 0.1 mL.\nTo optimize disease severity for this particular study, the pertussis toxin was administered at 165 ng/dose for the first injection and 154 ng/dose for the second injection.\nThere were 2 groups of 12 mice each.\nMice were assigned to groups 7 days before immunization (Day −7), balanced to achieve similar weight at the start of the study.\nTreatment was according to Table 1 below.\nDosing of all mice was at the same time (+/−1 hour) on each day.\nDosing of all mice started on Day −7 (7 days before EAE induction) and continued until Day 27.\nGroup 2 was dosed at 2 mg/kg from Day −7 to Day −1, and at 3 mg/kg until Day 27.\nMice were scored for EAE and weighed until Day 35, the last day of the study.\nReadouts were EAE scores and body weight at the end of the study.\nMice were scored daily from Day 7 after immunization until the end of the study, and body weight was measured three times/week (Monday, Wednesday and Friday), starting on Day −7.\nScoring was performed blind, by a person unaware of both treatment and of previous scores for each mouse.\nEAE was scored on scale 0 to 5: • 0 No obvious changes in motor functions of the mouse in comparison to non-immunized mice. • When picked up by the tail, the tail has tension and is erect. Hind legs are usually spread apart. When the mouse is walking, there is no gait or head tilting. • 1 Limp tail. • When the mouse is picked up by the tail, instead of being erect, the whole tail drapes over finger. • 2 Limp tail and weakness of hind legs. • When mouse is picked up by tail, legs are not spread apart, but held closer together. When the mouse is observed walking, it has a clearly apparent wobbly walk. • 3 Limp tail and complete paralysis of hind legs (most common). • OR • Limp tail with paralysis of one front and one hind leg. • OR • ALL of: • Severe head tilting, • Walking only along the edges of the cage, • Pushing against the cage wall, • Spinning when picked up by the tail. • 4 Limp tail, complete hind leg and partial front leg paralysis. • Mouse is minimally moving around the cage but appears alert and feeding. • Usually, euthanasia is recommended after the mouse scores level 4 for 2 days. When the mouse is euthanized because of severe paralysis, score of 5 is entered for that mouse for the rest of the experiment. • 5 Complete hind and complete front leg paralysis, no movement around the cage. • OR • Mouse is spontaneously rolling in the cage. • OR • Mouse is found dead due to paralysis. […]"}, "[2]": {"tested_on": "IL-6", "experiment": "Cytokine production in spleen cell cultures after MOG35-55/CFA immunization (cytokine bead assay)", "assay_type": "in vivo, mice", "settings": "spleen cells collected 11 days after immunization, cultured 72 hours with MOG35-55 (0, 0.7, 2.2, 6.7 and 20.0 μg/mL); treatment from Day -16", "method": "The objective of this study was to determine the effects of arsenic trioxide on cytokine production by T lymphocytes from draining lymph nodes and spleen after immunization with MOG35-55/CFA.\nThere were 2 experimental groups with 6 mice/group.\nTreatment started on Day −16.\nMice were immunized with MOG35-55/CFA on Day 0.\nEleven days after immunization, mice were euthanized, spleens and lymph nodes collected and cell suspensions prepared. Cell suspensions were cultured for 3 days in the presence of multiple concentrations of MOG35-55. The culture supernatants were collected at the end of this 3-day culture period. The concentrations of 7 cytokines (IL-2, IL-4, IL-6, IL-10, IL-17A, TNF, and IFN-γ) were determined in the culture supernatants using Th1/Th2/Th17 cytokine bead assay (CBA) kit from Becton Dickinson."}, "[3]": {"settings": "3 mg/kg, i.v., QD, listed as Arsenic trioxide"}, "[4]": {"settings": "to Day 28 (end of treatment), 3 mg/kg, i.v., QD"}}, "note": "“Also recorded” adds a separate entry of the source."}
{"substance": "arsenic trioxide", "values": [{"measurement": "Body weight compared to the vehicle treated controls", "setting": "[1]; 3 mg/kg, i.v., QD", "result": "higher body weight"}, {"measurement": "EAE disease severity compared to the vehicle group", "setting": "[1]; 3 mg/kg, i.v., QD", "result": "overall severity was lower; also recorded: reducing disease severity"}, {"measurement": "EAE onset compared to the vehicle group", "setting": "[1]; 3 mg/kg, i.v., QD", "result": "disease onset was postponed; also recorded: efficacious at postponing EAE onset"}, {"measurement": "EAE disease severity compared to the vehicle group", "setting": "[1]; [3]", "result": "reducing disease severity"}, {"measurement": "EAE onset compared to the vehicle group", "setting": "[1]; [3]", "result": "efficacious at postponing EAE onset"}, {"measurement": "Efficacy after the treatment was stopped", "setting": "[1]; 7 days after the treatment was stopped (Day 35)", "result": "efficacy was maintained 7 days after the treatment was stopped"}, {"measurement": "Day 27 % body weight +/- SD", "setting": "[1]; Day 27, 3 mg/kg, i.v., QD", "result": "97.3 +/− 5.1%"}, {"measurement": "End % body weight +/- SD", "setting": "[1]; Day 35 (end of study), 3 mg/kg, i.v., QD", "result": "93.2 +/− 6.4%"}, {"measurement": "Deaths in group", "setting": "[1]; group of 12 mice, 3 mg/kg, i.v., QD, death not from EAE nor from i.v. dosing complications", "result": "One mouse died"}, {"measurement": "EAE incidence (%)", "setting": "[1]; to Day 28 (end of treatment), 2 mg/kg Day -7 to -1, then 3 mg/kg to Day 27, i.v., QD", "result": 100, "unit": "%"}, {"measurement": "Mean day of onset +/- SEM (sick mice)", "setting": "[1]; [4]", "result": "17.5 ± 1.1", "unit": "days"}, {"measurement": "Median day of onset (all mice)", "setting": "[1]; [4]", "result": 17.0, "unit": "days"}, {"measurement": "MMS +/- SD (mean maximum score)", "setting": "[1]; to Day 28 (end of treatment), EAE scale 0 to 5, 3 mg/kg, i.v., QD", "result": "3.41 +/− 0.30"}, {"measurement": "IL-6 concentration in spleen cell cultures", "setting": "[2]", "result": "significant reduction of IL-6 concentration"}]}
